Test results published in patent US20240050420A1, “NANOMEDICINES FOR TREATMENT OF DISEASE” (Chapman University, priority 2022, published 2024).
Entries after “also recorded” stand apart in the source; their conditions may differ.

Legend:
[1] = Drug loading of NPs quantified by HPLC; type: physicochemical; settings: loading into PLGA nanoparticles
Experimental: For both rapamycin and 4-hydoxy-TEMPO encapsulated nanoparticles (RapaTEMPO-NPs) were synthesized by a combination (1000 mg) and rapamycin (20 mg) and 4-hydoxy-TEMPO (20 mg) (polymer to total drug ratio […]) was chosen. Also, 50 mg of 3,3′-diethylthiadicarbocyanine iodide (Cy5, 680 fluorescent emission agent) was dissolved in 20 mL of DMSO. The mixture was then added into the dispersing phase (40 mL of water with 1.2 mL of 10% Pluronic F-68) dropwise under moderate magnetic stirring (500 rpm, 1 h). For size and shape measurements, synthesized nanomaterials were examined by SEM using a TESCAN GAIA-3 XMH integrated focused ion beam-FESEM electron microscope. […] XPS spectra of the samples were recorded on a Kratos Analytical AXIS Supra system with a monochromated Al/Ag X-ray source (Al target). Total survey spectra were recorded in a range from 1300 to −5 eV binding energy (dwell time 200 ms, step size 1 eV, 2 sweeps), and all the region scans were conducted with suitable ranges (dwell time 500 ms, step size 0.05 eV and 5 sweeps). The FTIR spectra were recorded using a Bruker ALPHA (Platinum-ATR) spectrometer in the diffuse reflectance mode at a resolution of 4 cm^−1. The rapamycin and 4-yydoxy-TEMPO loading efficiencies were quantified by High-Performance Liquid Chromatography (HPLC; SHIMADZU). […]

[2] = Drug release from NPs by dialysis and HPLC; type: physicochemical; settings: monitored over a 7-day period; growth media with serum
Text: FIGS. 1A-I depict synthesis and characterization of polycystic kidney targeted nanoparticles. FIG. 1A: Schematic representation of synthesis, drug loading and surface functionalization of PLGA nanoparticles. FIG. 1B: The morphological features of the plain (unloaded) and drugs-loaded PLGA nanoparticles were imaged with scanning electron microscopy. Scale bars, 200 nm. FIG. 1C: Hydrodynamic size distribution of unloaded and drugs-loaded nanoparticles. FIG. 1D: Average zeta-potential measurements of unloaded and drugs-loaded nanoparticles. FIG. 1E: Average hydrodynamic size stability measurements of nanoparticles in saline (PBS), mouse plasma and growth media (DMEM) containing fetal bovine serum. […]
For both rapamycin and 4-hydoxy-TEMPO encapsulated nanoparticles (RapaTEMPO-NPs) were synthesized by a combination (1000 mg) and rapamycin (20 mg) and 4-hydoxy-TEMPO (20 mg) (polymer to total drug ratio […]) was chosen. […] XPS spectra of the samples were recorded on a Kratos Analytical AXIS Supra system with a monochromated Al/Ag X-ray source (Al target). Total survey spectra were recorded in a range from 1300 to −5 eV binding energy (dwell time 200 ms, step size 1 eV, 2 sweeps), and all the region scans were conducted with suitable ranges (dwell time 500 ms, step size 0.05 eV and 5 sweeps). […]

ADPKD cells = experiment: 3D cyst culture in Matrigel/collagen with forskolin and EGF; type: cell-based, human; settings: 3D culture, treatment from day 1, evaluated on day 6
Experimental: FIGS. 2A-C depict functional nanoparticle-targeting in 3-dimensional culture. FIG. 2A: Human renal epithelia from normal kidney (NK) cells and autosomal dominant polycystic kidney disease (ADPKD) were grown to form cysts in a 3D Matrigel system with collagen in the presence of forskolin and EGF for 1 day followed by different treatments for 5 additional days. All representative live DIC and fluorescence images were taken at 6 days. Control treatment was denoted as vehicle (saline-only). 3D non-cyst/cyst cultures were imaged for nanoparticles uptake, cyst formation and cysts size measurements. The inset images at the right showing the enlarged cystic area taken from the white square boxes selected from the images at the left. Scale bar, 200 μm. FIG. 2B: Percent number of cysts were measured and plotted in bar graphs; each point represents an averaged of replicate.
3D cyst culture and live imaging. […] To assess the effects of vehicle (saline) and different plain and drug-loaded nanoparticles (1 mg/mL) were added (10 μL) on day one after stimulation with forskolin and cyst formation were evaluated on day 6. The cyst growth was observed by using Nikon live cell microscope using its DIC and fluorescence capabilities. […] Using ×20 lens, the number of cysts and their sizes (in diameter) in each well was counted and measured using an ocular scale from the Nikon Eclipse Imaging Software. […]

mTOR signaling pathway = experiment: Immunoblotting of p-S6K and p-S6 in kidney lysates; type: in vivo, mice; settings: end of 9 weeks of therapy
Experimental: Drug-NPs were administered intravenously once, while drug-only was intravenously injected daily. N=5. […] Total-S6K (t-S6K), total-S6 (t-S6) and equal loading control (GAPDH). N=3. FIG. 4C: Immunoblot data for p-S6K in bar graphs. […] Statistical analysis was performed using ANOVA followed by Tukey's multiple comparison test.
Immunoblotting. After the completion of in-life studies, mice treated with the different control, plain and drug-loaded nanoparticles were euthanized, and the kidneys were collected and rinsed with PBS. Approximately 100 mg of tissue samples were placed in RIPA buffer supplemented with Complete Protease Inhibitor (MedChemExpress). […] Samples were then centrifuged at 20 000 rpm for 15 min, and the supernatants were collected and subjected to protein quantification. The PAGE (polyacrylamide gel electrophoresis) on 8-10% SDS gels was performed, followed by semi-dry transfer to PVDF membranes using a Bio-Rad Trans-Blot (Turbo Transfer) machine and detection using antibodies against p-S6 (1:000), p-S6K (1:1000), t-S6 (1:2000), t-S6K (1:2000) and GAPDH (1:1,000) (Cell Signaling Technology). Blots were scanned with both calorimetries to image molecular markers and chemiluminescence to capture the protein signal intensity using a BioRad Gel-doc imaging system.

Pkd2 mice [3] = experiment: CT imaging of total kidney volume; type: in vivo; settings: CT at 3, 6 and 9 weeks
Experimental: FIGS. 20A-C. FIGS. 20A-B depict coronal and trans-axial CT imaging of mice at 3, 6 and 9 weeks of treatment time. FIG. 20C: Plots showing the total kidney volume at 3, 6 and 9 weeks of treatment time.
Because RapaTEMPO-NPs were applied prior to severe cystic development in the kidneys, lateral (FIG. 20A) and cross-section (FIG. 20B) of computerized tomography scans were performed in the kidneys at 3-, 6- and 9-weeks to monitor progression of changes in kidney volume. […] Longitudinal effects on blood pressure were also monitored throughout the treatment period (FIG. 21). The increase in blood pressure in kidney-specific Pkd2 seemed to be associated with expansion of renal cysts leading to compression in renal vasculature and eventual RAAS activation.

polycystic kidneys = settings: literature; cited from earlier work
Pkd2 mice [4] = experiment: 9-week treatment of Pkd2 mice: body weight, survival, cysts, fibrosis, kidney fluorescence; settings: long-term use, drug-alone 1 mg/kg i.v. daily
Text: FIG. 5A: Kidney comparison of wild-type (WT) and Pkd2 kidneys after 9-weeks of treatment. Color, brightfield, fluorescent images were captured consecutively. The hematoxylin and eosin (H&E) sections were obtained from the same corresponding kidneys.
FIG. 5B: Fluorescence intensity measurements from isolated kidneys were normalized to total kidney volume (TKV). […] FIG. 5D: Total kidney weight measurement. FIG. 5D. Percent weight ratio of 2 kidneys to body weight (2 KW/BW). FIG. 5F: Total cyst number calculated using H&E staining. FIG. 5G: Kaplan-Meier survival curves analyzed with Log-rank test. N=5 for all experiments. *P<0.05, **P<0.01, ***P<0.001, ****P<0.0001 compared to wild-type vehicle. #P<0.05, ##P<0.01, #44P<0.001, #44t #P<0.0001 compared to Pkd2 vehicle. Statistical analysis was performed using ANOVA followed by Tukey's multiple comparison test.
Animal studies. […] All animal experimentation was conducted as double-blinded operators to disregard biases and critical analyses. All control (KspCre·Pkd2^WT/WT) and PKD (KspCre·Pkd2^flox/flox) non-inducible mice models were obtained from the Jackson Laboratory and Harvard Medical School.
Histology Studies. Sections of the mouse visceral organs (hearts, kidneys, livers, spleens, and lung)s, were collected and subjected to hematoxylin and eosin (H&E) staining by starting the tissue fixation using 10% formalin. Then, the tissues were dehydrated in buffered formalin, ethanol, and xylene. Finally, the tissues were embedded in liquid paraffin, sectioned (5 μm), and stained with H&E for histological examinations. The pathology slices were observed and imaged using a KEYENCE BZ-X710 microscope. Mouse normal and polycystic kidney sections were stained with Masson's trichrome to detect fibrosis using a Masson's Trichrome Stain Kit (Polysciences, Inc.).
Throughout the studies, KspCre·Pkd2^WT/WT and KspCre·Pkd2^flox/flox mouse models were used and are respectively referred to wild-type and Pkd2 mice henceforth.

SMILES | Drug loading, weight ratio drug/NPs [1] [%] | Time of maximum drug release from NPs [2] | Cyst number and size (ADPKD cells) | Effect on levels of phosphorylation of S6K and S6 (mTOR signaling pathway) | Total kidney volume over treatment time (Pkd2 mice [3]) | Kidney injury and fibrosis (polycystic kidneys) | Body weight (Pkd2 mice [4]) | Body weight (Pkd2 mice [4]; listed as rapamycin-alone)
CC1(C)CC(O)CC(C)(C)N1[O] [4-hydroxy-[2,2,6,6-tetramethylpiperidin-1-yl]oxidanyl] | 34.7±3.1 | about 3 days | some effect | minimal effect | no effect in kidney volume expansion | alleviate kidney injury and fibrosis by reducing renal superoxide |  | 
CO[C@H]1C[C@@H]2CC[C@@H](C)[C@@](O)(O2)C(=O)C(=O)N2CCCC[C@H]2C(=O)O[C@H]([C@H](C)C[C@@H]2CC[C@@H](O)[C@H](OC)C2)CC(=O)[C@H](C)/C=C(\C)[C@@H](O)[C@@H](OC)C(=O)[C@H](C)C[C@H](C)/C=C/C=C/C=C/1C [rapamycin] |  |  |  |  |  |  | reduced | significantly lowered the body weight; also recorded: nor reduces the impediment in body weight gain
